Laboratory results from patent US12312332B2 (Merck Sharp & Dohme LLC., priority 2019, dated 2025).

Target: T1, human OX2R (Homo sapiens, UniProt O43614)
T1 construct: expressed in transfected cells; host or cells: Chinese hamster ovary (CHO) cells, kept under G418 selection
T1 sequence (O43614 1-444): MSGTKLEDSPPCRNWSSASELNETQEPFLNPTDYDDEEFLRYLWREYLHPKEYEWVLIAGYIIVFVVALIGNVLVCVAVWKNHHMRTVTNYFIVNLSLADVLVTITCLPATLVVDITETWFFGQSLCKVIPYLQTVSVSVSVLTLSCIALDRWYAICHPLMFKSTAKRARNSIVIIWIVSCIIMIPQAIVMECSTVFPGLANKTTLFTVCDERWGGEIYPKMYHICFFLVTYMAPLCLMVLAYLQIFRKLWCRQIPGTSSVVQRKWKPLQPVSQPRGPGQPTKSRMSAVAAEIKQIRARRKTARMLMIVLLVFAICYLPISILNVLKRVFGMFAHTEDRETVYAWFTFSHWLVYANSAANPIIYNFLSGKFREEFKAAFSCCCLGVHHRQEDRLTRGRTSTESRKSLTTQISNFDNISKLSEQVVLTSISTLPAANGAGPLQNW
Experiment: IPOne (IP-One) orexin receptor agonist assay in CHO cells expressing human OX2R
Type: cell-based
Conditions: for EC50: CHO cells expressing human OX2R, IP-One detection, 2 hours incubation, four parameter logistic fit, read-out: OX2R Potency, EC50; for % max agonist effect (Emax): human OX2R, percentage of sample raw value/mean max effect (reference compound at 1 uM with 100% activity)

Row | Compound | EC50 [nM] | % max agonist effect (Emax) [%]
1 | CS(=O)(=O)N[C@H]1CCN(c2ccc(O)cn2)[C@H]1CO[C@H]1CC[C@@H](c2ccccc2)CC1 [Example 68, N-((2R,3S)-1-(5-hydroxypyridin-2-yl)-2-((((CIS)-4-phenylcyclohexyl)oxy)methyl)pyrrolidin-3-yl)methanesulfonamide] | 173 | 99.1
2 | CS(=O)(=O)N[C@H]1CCN(c2csc(C3CC3)n2)[C@H]1CO[C@H]1CC[C@@H](c2ccccc2)CC1 [Example 69, N-((2R,3S)-1-(2-cyclopropylthiazol-4-yl)-2-((((CIS)-4-phenylcyclohexyl)oxy)methyl)pyrrolidin-3-yl)methanesulfonamide] | 271 | 99.4
3 | CS(=O)(=O)N[C@H]1CCN(c2ccncc2C(F)(F)F)[C@H]1CO[C@H]1CC[C@@H](c2ccccc2)CC1 [Example 70, N-((2R,3S)-2-((((CIS)-4-phenylcyclohexyl)oxy)methyl)-1-(3-(trifluoromethyl)pyridin-4-yl)pyrrolidin-3-yl)methanesulfonamide] | 1670 | 96.0
4 | CS(=O)(=O)N[C@H]1CCN(c2ccc(CO)nc2)[C@H]1CO[C@H]1CC[C@@H](c2ccccc2)CC1 [Example 71, N-((2R,3S)-1-(6-(hydroxymethyl)pyridin-3-yl)-2-((((CIS)-4-phenylcyclohexyl)oxy)methyl)pyrrolidin-3-yl)methanesulfonamide] | 23.8 | 101.1
5 | CS(=O)(=O)N[C@H]1CCN(c2nccc(O)c2F)[C@H]1CO[C@H]1CC[C@@H](c2ccccc2)CC1 [Example 72, N-((2R,3S)-1-(3-fluoro-4-hydroxypyridin-2-yl)-2-((((CIS)-4-phenylcyclohexyl)oxy)methyl)pyrrolidin-3-yl)methanesulfonamide] | 1.2 | 99.9
6 | COc1ccnc(N2CC[C@H](NS(C)(=O)=O)[C@@H]2CO[C@H]2CC[C@@H](c3ccccc3)CC2)c1 [Example 73, N-((2R,3S)-1-(4-methoxypyridin-2-yl)-2-((((CIS)-4-phenylcyclohexyl)oxy)methyl)pyrrolidin-3-yl)methanesulfonamide] | 105 | 99.7
7 | CN(C)c1ccnc(N2CC[C@H](NS(C)(=O)=O)[C@@H]2CO[C@H]2CC[C@@H](c3ccccc3)CC2)c1 [Example 74, N-((2R,3S)-1-(4-(dimethylamino)pyridin-2-yl)-2-((((CIS)-4-phenylcyclohexyl)oxy)methyl)pyrrolidin-3 - yl)methanesulfonamide] | 662 | 97.4
8 | CS(=O)(=O)N[C@H]1CCN(c2cc(O)ccn2)[C@H]1CO[C@H]1CC[C@@H](c2ccccc2)CC1 [Example 75, N-((2R,3S)-1-(4-hydroxypyridin-2-yl)-2-((((CIS)-4-phenylcyclohexyl)oxy)methyl)pyrrolidin-3-yl)methanesulfonamide] | 0.8 | 100.4
9 | C[C@@H]1C[C@H](NS(C)(=O)=O)[C@H](CO[C@H]2CC[C@@H](c3ccccc3)CC2)N1c1nnnn1C [Example 80, N-((2R,3S,5R)-5-Methyl-1-(1-methyl-1H-tetrazol-5-yl)-2-((((CIS)-4-phenylcyclohexyl)oxy)-methyl)pyrrolidin-3-yl)methanesulfonamide] | 1.8 | 97.9
10 | Cc1ccncc1N1CC[C@H](NS(C)(=O)=O)[C@@H]1CO[C@H]1CC[C@@H](c2ccccc2)CC1 [Example 81, N-((2R,3S)-1-(4-Methylpyridin-3-yl)-2-((((CIS)-4-phenylcyclohexyl)oxy)methyl)pyrrolidin-3-yl)methanesulfonamide] | 24.5 | 100.9
11 | Cc1ncccc1N1CC[C@H](NS(C)(=O)=O)[C@@H]1CO[C@H]1CC[C@@H](c2ccccc2)CC1 [Example 82, N-((2R,3S)-1-(2-methylpyridin-3-yl)-2-((((CIS)-4-phenylcyclohexyl)oxy)methyl)pyrrolidin-3-yl)methanesulfonamide] | 3360 | 92.4
12 | Cc1ncsc1N1CC[C@H](NS(C)(=O)=O)[C@@H]1CO[C@H]1CC[C@@H](c2ccccc2)CC1 [Example 83, N-((2R,3S)-1-(4-methylthiazol-5-yl)-2-((((CIS)-4-phenylcyclohexyl)oxy)methyl)pyrrolidin-3-yl)methanesulfonamide] | 1070 | 94.8
13 | Cc1scnc1N1CC[C@H](NS(C)(=O)=O)[C@@H]1CO[C@H]1CC[C@@H](c2ccccc2)CC1 [Example 84, N-((2R,3S)-1-(5-methylthiazol-4-yl)-2-((((CIS)-4-phenylcyclohexyl)oxy)methyl)pyrrolidin-3-yl)methanesulfonamide] | 109 | 100.7
14 | COC[C@@H]1C[C@H](NS(C)(=O)=O)[C@H](CO[C@H]2CC[C@@H](c3cccc(F)c3)CC2)N1c1cc(O)c(F)cn1 [Example 85, N-((2R,3S,5S)-1-(5-fluoro-4-hydroxypyridin-2-yl)-2-((((CIS)-4-(3-fluorophenyl)cyclohexyl)-oxy)methyl)-5-(methoxymethyl)pyrrolidin-3-yl)methanesulfonamide] | 0.54 | 101.1
15 | Cn1ccc(=O)c(F)c1N1CC[C@H](NS(C)(=O)=O)[C@@H]1CO[C@H]1CC[C@@H](c2ccccc2)CC1 [Example 86, N-((2R,3S)-1-(3-fluoro-1-methyl-4-oxo-1,4-dihydropyridin-2-yl)-2-((((CIS)-4-phenylcyclohexyl)oxy)methyl)pyrrolidin-3-yl)methanesulfonamide] | 148 | 99.9
16 | Cn1ccc(=O)cc1N1CC[C@H](NS(C)(=O)=O)[C@@H]1CO[C@H]1CC[C@@H](c2ccccc2)CC1 [Example 87, N-((2R,3S)-1-(1-methyl-4-oxo-1,4-dihydropyridin-2-yl)-2-((((CIS)-4-phenylcyclohexyl)oxy)methyl)pyrrolidin-3-yl)methanesulfonamide] | 52.4 | 102.3
17 | Cn1cc(F)c(=O)cc1N1CC[C@H](NS(C)(=O)=O)[C@@H]1CO[C@H]1CC[C@@H](c2ccccc2)CC1 [Example 88, N-((2R,3S)-1-(5-fluoro-1-methyl-4-oxo-1,4-dihydropyridin-2-yl)-2-((((CIS)-4-phenylcyclohexyl)oxy)methyl)pyrrolidin-3-yl)methanesulfonamide] | 29.3 | 101.1
18 | CS(=O)(=O)N[C@H]1CCN(c2cc(=O)c(F)cn2CC(F)F)[C@H]1CO[C@H]1CC[C@@H](c2ccccc2)CC1 [Example 89, N-((2R,3S)-1-(1-(2,2-difluoroethyl)-5-fluoro-4-oxo-1,4-dihydropyridin-2-yl)-2-((((CIS)-4-phenylcyclohexyl)oxy)methyl)pyrrolidin-3-yl)methanesulfonamide] | 108 | 98.9
19 | CS(=O)(=O)N[C@H]1CCN(c2cnc3oncc3c2)[C@H]1CO[C@H]1CC[C@@H](c2ccccc2)CC1 [Example 90, N-((2R,3S)-1-(isoxazolo[5,4-b]pyridin-5-yl)-2-((((CIS)-4-phenylcyclohexyl)oxy)methyl)pyrrolidin-3-yl)methanesulfonamide] | 930 | 87.6
20 | CS(=O)(=O)N[C@H]1CCN(c2cnc3ccoc3c2)[C@H]1CO[C@H]1CC[C@@H](c2ccccc2)CC1 [Example 91, N-((2R,3S)-1-(furo[3,2-b]pyridin-6-yl)-2-((((CIS)-4-phenylcyclohexyl)oxy)methyl)pyrrolidin-3-yl)methanesulfonamide] | 803 | 99.0
21 | CS(=O)(=O)N[C@H]1CCN(c2cnc3occc3c2)[C@H]1CO[C@H]1CC[C@@H](c2ccccc2)CC1 [Example 92, N-((2R,3S)-1-(furo[2,3-b]pyridin-5-yl)-2-((((CIS)-4-phenylcyclohexyl)oxy)methyl)pyrrolidin-3-yl)methanesulfonamide] | 326 | 100.2
22 | COC[C@@H]1C[C@H](NS(=O)(=O)N(C)C)[C@H](CO[C@H]2CC[C@@H](c3cccc(F)c3)CC2)N1c1cc(O)c(F)cn1 [Example 93, N′-((2R,3S,5S)-1-(5-fluoro-4-hydroxypyridin-2-yl)-2-((((CIS)-4-(3-fluorophenyl)cyclohexyl)oxy)methyl)-5-(methoxymethyl)pyrrolidin-3-yl)-N,N-dimethyl-sulfamide] | 0.45 | 101.9
23 | C[C@@H]1C[C@H](NS(=O)(=O)N(C)C)[C@H](CO[C@H]2CC[C@@H](c3cccc(F)c3)CC2)N1c1cc(O)c(F)cn1 [Example 94, N′-((2R,3S,5R)-1-(5-fluoro-4-hydroxypyridin-2-yl)-2-((((CIS)-4-(3-fluorophenyl)cyclohexyl)oxy)methyl)-5-methylpyrrolidin-3-yl)-N,N-dimethyl-sulfamide] | 0.3 | 99.6
24 | C[C@@H]1C[C@H](NS(=O)(=O)N(C)C)[C@H](CO[C@H]2CC[C@@H](c3cccc(F)c3)CC2)N1c1cc(O)c(Cl)cn1 [Example 95, N′-((2R,3S,5R)-1-(5-chloro-4-hydroxypyridin-2-yl)-2-((((CIS)-4-(3-fluorophenyl)cyclohexyl)oxy)methyl)-5-methylpyrrolidin-3-yl)-N,N-dimethyl-sulfamide] | 0.23 | 100.5
